Measurements as given in ChEMBL document CHEMBL5291721, “A preclinical secondary pharmacology resource illuminates target-adverse drug reaction associations of marketed drugs” (Nat Commun, 2023).

Legend:
Acetylcholinesterase [1] = biological target: T1, Acetylcholinesterase (Homo sapiens, UniProt P22303); assay type: functional
[2] = biological target: T2, 5-hydroxytryptamine receptor 2B (Homo sapiens, UniProt P41595); assay type: functional, cell-based
Cannabinoid receptor 1 = Cannabinoid receptor 1 (Homo sapiens, UniProt P21554)
[3] = biological target: Kappa-type opioid receptor (Homo sapiens, UniProt P41145)
[4] = biological target: T2, 5-hydroxytryptamine receptor 2B; assay type: functional, cell-based; remark: listed apart in the source
[5] = biological target: Neuronal acetylcholine receptor subunit alpha-4 (Homo sapiens, UniProt P43681)
D(1A) dopamine receptor = D(1A) dopamine receptor (Homo sapiens, UniProt P21728); assay type: functional, cell-based
[6] = biological target: Sodium-dependent noradrenaline transporter (Homo sapiens, UniProt P23975)
D(3) dopamine receptor = D(3) dopamine receptor (Homo sapiens, UniProt P35462)
[7] = biological target: T3, Gamma-aminobutyric acid receptor subunit alpha-1 (Rattus norvegicus, UniProt P62813); assay type: functional
[8] = biological target: T3, Gamma-aminobutyric acid receptor subunit alpha-1
Mu-type opioid receptor [9] = biological target: T4, Mu-type opioid receptor (Homo sapiens, UniProt P35372); experiment: biochemical; assay type: functional
Mu-type opioid receptor [10] = biological target: T4, Mu-type opioid receptor
[11] = biological target: Glutamate receptor ionotropic, NMDA 1 (Rattus norvegicus, UniProt P35439)
Acetylcholinesterase [12] = biological target: T1, Acetylcholinesterase; assay type: functional; remark: listed apart in the source
Bile salt export pump = Bile salt export pump (Homo sapiens, UniProt O95342); assay type: functional
[13] = biological target: Voltage-gated inwardly rectifying potassium channel KCNH2 (Homo sapiens, UniProt Q12809); assay type: functional; details: read-out: AC50
[14] = biological target: T5, Alpha-2C adrenergic receptor (Homo sapiens, UniProt P18825); assay type: functional
T5 sequence (P18825 whole entry): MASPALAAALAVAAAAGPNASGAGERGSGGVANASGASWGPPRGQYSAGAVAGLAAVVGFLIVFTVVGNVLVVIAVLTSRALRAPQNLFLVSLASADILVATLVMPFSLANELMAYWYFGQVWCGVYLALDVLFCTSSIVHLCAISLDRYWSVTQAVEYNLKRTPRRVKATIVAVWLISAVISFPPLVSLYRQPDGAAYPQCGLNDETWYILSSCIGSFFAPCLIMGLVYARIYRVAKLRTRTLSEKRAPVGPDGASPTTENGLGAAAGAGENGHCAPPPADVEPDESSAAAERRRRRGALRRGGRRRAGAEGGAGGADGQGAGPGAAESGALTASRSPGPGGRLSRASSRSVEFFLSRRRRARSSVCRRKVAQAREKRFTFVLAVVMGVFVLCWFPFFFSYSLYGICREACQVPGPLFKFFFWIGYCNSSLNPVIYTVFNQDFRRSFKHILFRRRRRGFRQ

[15] = biological target: 5-hydroxytryptamine receptor 2A (Homo sapiens, UniProt P28223); assay type: functional, cell-based
[16] = biological target: T6, Muscarinic acetylcholine receptor M4 (Homo sapiens, UniProt P08173)
T6 sequence (P08173 whole entry): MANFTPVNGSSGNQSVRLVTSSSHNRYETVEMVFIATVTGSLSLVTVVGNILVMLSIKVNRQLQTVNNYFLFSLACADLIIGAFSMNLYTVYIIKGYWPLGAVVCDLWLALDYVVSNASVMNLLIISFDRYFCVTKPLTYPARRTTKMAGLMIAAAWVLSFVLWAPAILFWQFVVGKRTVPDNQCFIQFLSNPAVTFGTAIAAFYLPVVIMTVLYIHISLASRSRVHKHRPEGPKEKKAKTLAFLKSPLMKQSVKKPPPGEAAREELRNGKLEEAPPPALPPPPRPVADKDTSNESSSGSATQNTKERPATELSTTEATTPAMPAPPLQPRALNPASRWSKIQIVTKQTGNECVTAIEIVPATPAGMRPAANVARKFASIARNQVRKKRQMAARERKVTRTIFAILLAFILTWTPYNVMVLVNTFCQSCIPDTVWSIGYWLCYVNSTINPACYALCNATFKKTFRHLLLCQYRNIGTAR

[17] = biological target: T7, Muscarinic acetylcholine receptor M5 (Homo sapiens, UniProt P08912)
T7 sequence (P08912 whole entry): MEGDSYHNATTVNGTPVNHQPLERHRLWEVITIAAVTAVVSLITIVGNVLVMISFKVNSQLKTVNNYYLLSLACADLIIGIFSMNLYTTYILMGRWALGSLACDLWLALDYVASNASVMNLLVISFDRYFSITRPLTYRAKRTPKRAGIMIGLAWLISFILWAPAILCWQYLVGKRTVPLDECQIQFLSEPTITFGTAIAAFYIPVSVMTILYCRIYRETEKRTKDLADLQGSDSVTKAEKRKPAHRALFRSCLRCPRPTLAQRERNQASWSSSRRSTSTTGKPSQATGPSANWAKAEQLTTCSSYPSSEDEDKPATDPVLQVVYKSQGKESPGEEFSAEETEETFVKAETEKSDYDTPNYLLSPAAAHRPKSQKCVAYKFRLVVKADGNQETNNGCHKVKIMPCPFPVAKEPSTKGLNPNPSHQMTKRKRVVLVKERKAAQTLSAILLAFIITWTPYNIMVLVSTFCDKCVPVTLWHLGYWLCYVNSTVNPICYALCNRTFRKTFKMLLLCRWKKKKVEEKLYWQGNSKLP
Further: assay procedure not described here.

T1 sequence (P22303 whole entry): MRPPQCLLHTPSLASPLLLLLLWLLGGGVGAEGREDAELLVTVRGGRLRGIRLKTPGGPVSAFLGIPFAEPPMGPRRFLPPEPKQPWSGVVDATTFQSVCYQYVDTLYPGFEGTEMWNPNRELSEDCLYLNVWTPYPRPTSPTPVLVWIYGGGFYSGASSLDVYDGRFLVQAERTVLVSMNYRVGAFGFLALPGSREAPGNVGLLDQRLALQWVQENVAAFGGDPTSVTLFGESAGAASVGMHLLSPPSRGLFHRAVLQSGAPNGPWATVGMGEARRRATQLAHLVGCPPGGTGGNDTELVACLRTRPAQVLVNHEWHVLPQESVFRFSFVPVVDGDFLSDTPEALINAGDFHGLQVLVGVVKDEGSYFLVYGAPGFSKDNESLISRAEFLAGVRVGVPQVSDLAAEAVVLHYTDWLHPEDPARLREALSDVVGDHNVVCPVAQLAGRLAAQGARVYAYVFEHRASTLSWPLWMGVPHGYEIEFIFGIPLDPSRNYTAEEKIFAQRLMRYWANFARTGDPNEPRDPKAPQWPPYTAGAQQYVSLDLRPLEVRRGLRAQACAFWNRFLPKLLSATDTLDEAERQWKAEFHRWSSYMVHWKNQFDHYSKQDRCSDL
T3 sequence (P62813 whole entry): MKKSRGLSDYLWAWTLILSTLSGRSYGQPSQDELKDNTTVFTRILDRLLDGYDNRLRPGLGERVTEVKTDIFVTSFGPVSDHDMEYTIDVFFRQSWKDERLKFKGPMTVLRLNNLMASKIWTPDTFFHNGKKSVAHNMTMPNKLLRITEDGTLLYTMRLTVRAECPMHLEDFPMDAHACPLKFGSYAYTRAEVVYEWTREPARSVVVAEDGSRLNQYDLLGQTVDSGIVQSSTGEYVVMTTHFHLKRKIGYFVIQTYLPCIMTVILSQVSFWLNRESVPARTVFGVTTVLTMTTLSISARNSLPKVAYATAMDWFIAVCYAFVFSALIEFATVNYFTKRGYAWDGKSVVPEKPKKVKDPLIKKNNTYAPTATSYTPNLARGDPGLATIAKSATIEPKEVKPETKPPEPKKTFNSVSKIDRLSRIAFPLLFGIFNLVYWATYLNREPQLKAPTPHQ
T2 sequence (P41595 whole entry): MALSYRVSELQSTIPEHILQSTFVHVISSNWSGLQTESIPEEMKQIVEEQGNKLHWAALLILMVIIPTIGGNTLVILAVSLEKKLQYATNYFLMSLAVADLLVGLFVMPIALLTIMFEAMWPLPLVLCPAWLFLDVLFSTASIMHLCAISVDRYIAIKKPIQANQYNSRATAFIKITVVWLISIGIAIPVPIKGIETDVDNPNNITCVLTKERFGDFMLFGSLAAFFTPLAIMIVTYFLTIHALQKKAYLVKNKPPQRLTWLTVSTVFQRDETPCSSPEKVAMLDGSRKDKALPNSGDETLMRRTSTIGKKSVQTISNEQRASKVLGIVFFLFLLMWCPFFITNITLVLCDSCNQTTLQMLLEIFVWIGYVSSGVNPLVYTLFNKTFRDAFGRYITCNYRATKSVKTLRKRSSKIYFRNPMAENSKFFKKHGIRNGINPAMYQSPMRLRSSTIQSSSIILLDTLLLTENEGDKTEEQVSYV
T4 sequence (P35372 whole entry): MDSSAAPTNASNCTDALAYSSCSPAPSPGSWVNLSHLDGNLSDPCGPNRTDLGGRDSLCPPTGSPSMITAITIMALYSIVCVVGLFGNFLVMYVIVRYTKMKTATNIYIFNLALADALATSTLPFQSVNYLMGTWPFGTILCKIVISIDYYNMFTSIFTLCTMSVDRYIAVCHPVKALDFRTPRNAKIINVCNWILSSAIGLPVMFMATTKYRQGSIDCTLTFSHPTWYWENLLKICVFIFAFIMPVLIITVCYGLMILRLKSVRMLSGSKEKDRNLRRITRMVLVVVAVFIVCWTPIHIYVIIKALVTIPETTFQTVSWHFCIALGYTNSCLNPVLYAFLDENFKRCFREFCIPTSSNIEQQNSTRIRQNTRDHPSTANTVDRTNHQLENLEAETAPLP
Chain of Neuronal acetylcholine receptor subunit alpha-4 (P43681 whole entry): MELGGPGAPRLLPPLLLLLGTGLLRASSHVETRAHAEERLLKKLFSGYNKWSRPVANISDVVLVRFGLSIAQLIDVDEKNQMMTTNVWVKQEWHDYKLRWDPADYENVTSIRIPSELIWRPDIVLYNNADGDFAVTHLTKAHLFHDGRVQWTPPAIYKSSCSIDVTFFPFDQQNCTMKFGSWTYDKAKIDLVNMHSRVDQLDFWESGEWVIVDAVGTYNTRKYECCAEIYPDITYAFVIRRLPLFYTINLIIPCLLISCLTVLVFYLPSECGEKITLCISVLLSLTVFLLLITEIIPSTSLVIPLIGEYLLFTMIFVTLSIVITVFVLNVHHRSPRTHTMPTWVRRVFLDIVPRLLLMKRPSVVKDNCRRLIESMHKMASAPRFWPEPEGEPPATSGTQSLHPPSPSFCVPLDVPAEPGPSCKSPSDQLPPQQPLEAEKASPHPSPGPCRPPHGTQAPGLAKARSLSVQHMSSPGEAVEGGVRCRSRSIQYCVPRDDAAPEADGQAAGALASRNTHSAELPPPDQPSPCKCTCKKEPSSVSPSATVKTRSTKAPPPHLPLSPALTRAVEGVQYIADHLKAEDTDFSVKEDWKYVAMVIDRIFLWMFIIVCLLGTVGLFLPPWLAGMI
Chain of Bile salt export pump (O95342 whole entry): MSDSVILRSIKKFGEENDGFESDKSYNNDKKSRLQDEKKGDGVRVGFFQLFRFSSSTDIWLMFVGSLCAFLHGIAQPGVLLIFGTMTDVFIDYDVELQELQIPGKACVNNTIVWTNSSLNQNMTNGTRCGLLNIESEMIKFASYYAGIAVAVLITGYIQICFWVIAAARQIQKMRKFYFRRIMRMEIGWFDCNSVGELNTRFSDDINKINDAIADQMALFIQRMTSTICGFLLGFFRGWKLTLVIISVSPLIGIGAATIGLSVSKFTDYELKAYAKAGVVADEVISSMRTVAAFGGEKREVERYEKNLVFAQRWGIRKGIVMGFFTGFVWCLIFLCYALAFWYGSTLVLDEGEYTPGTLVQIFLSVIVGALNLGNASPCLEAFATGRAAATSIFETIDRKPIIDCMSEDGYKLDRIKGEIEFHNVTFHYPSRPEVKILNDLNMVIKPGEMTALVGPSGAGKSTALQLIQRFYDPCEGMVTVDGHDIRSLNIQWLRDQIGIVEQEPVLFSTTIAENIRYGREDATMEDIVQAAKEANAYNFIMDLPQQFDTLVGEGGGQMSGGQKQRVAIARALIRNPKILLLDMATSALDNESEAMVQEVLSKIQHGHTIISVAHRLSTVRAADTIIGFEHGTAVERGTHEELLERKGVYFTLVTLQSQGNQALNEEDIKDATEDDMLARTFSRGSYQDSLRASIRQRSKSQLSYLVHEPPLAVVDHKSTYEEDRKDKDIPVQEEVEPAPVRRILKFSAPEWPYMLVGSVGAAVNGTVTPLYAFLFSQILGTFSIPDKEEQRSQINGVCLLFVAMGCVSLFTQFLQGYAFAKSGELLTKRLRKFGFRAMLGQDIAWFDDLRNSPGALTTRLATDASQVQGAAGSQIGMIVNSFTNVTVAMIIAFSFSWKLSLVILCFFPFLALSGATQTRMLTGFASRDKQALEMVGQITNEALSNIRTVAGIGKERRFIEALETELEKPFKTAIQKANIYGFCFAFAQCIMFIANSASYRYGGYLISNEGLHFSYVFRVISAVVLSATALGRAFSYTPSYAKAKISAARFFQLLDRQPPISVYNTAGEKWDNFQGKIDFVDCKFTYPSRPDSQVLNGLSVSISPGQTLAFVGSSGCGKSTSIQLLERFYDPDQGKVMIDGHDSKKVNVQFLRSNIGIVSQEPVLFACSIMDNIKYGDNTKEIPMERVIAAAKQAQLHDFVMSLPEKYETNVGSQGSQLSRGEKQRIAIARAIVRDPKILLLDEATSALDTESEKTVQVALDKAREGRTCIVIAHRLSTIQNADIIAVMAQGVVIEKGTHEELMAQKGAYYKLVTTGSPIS
Chain of 5-hydroxytryptamine receptor 2A (P28223 whole entry): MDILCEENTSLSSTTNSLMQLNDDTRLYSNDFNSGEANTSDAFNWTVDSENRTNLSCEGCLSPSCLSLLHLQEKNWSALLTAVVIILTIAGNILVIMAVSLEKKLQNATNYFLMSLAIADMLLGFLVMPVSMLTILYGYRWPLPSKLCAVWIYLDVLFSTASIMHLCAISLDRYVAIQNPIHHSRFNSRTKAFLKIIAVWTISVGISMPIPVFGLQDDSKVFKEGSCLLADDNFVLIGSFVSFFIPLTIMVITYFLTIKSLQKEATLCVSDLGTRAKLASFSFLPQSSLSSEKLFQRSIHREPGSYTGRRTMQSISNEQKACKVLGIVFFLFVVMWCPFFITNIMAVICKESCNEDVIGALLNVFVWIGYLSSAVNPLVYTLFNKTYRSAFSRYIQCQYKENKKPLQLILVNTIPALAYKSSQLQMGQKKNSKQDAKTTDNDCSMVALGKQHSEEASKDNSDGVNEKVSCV
Chain of Sodium-dependent noradrenaline transporter (P23975 whole entry): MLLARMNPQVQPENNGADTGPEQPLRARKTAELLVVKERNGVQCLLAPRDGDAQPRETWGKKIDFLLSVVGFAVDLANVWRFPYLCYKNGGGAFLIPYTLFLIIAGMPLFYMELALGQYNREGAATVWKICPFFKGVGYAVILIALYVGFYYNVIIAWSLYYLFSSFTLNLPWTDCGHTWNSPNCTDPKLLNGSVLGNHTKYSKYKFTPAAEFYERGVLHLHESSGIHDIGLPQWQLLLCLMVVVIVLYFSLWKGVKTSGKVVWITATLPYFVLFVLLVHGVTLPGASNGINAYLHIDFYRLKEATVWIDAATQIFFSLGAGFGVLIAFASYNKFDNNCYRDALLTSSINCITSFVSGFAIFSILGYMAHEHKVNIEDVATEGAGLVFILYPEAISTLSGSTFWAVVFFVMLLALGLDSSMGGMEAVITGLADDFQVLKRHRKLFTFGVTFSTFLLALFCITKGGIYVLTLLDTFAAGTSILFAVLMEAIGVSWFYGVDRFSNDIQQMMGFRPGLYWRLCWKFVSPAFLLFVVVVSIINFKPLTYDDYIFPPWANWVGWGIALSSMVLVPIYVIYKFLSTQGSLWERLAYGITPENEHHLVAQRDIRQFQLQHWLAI

## CCN(CC)C(=S)SSC(=S)N(CC)CC
Acetylcholinesterase [1]
  AC50: 14.2 µM

## CCCC(=O)Nc1ncnc2c1ncn2[C@@H]1O[C@@H]2COP(=O)(O)O[C@H]2[C@H]1OC(=O)CCC [BUCLADESINE]
Acetylcholinesterase [1]
  AC50: > 30 µM

## O=C1CC2(CCCC2)CC(=O)N1CCCCN1CCN(c2ncccn2)CC1 [BUSPIRONE]
[2]
  AC50: > 10 µM
Cannabinoid receptor 1
  AC50: 17.5 µM
[3]
  AC50: > 10 µM
[4]
  AC50: 7.37 µM
[5]
  AC50: > 10 µM
D(1A) dopamine receptor
  AC50: > 10 µM
[6]
  AC50: > 30 µM
D(3) dopamine receptor
  AC50: 0.048 µM
[7]
  AC50: > 10 µM
[8]
  AC50: > 10 µM
Mu-type opioid receptor [9]
  AC50: > 30 µM
Mu-type opioid receptor [10]
  AC50: > 30 µM
[11]
  AC50: > 10 µM

## NC(=O)OC[C@@H]1[C@H](NC(=O)/C(=N\OCC(=O)O)c2csc(N)n2)C(=O)N1S(=O)(=O)O [CARUMONAM]
Acetylcholinesterase [12]
  AC50: > 500 µM

## CC/C(=C(/CC)c1ccc(O)cc1)c1ccc(O)cc1 [DIETHYLSTILBESTROL]
Acetylcholinesterase [1]
  AC50: > 30 µM

## Nc1cccc2c1CN(C1CCC(=O)NC1=O)C2=O (configuration not stated) [LENALIDOMIDE]
Bile salt export pump
  AC50: > 300 µM

## NCCCC[C@H](N[C@@H](CCc1ccccc1)C(=O)O)C(=O)N1CCC[C@H]1C(=O)O [LISINOPRIL ANHYDROUS]
Acetylcholinesterase [1]
  AC50: > 30 µM

## C[N+]1(C)[C@@H]2CC[C@H]1C[C@@H](OC(=O)C(O)c1ccccc1)C2 (some centres not stated) [METHYLHOMATROPINE]
[13]
  AC50: > 30 µM

## CN1CCN2c3ccccc3Cc3ccccc3C2C1 (configuration not stated) [MIANSERIN]
[14]
  AC50: 0.05 µM
Acetylcholinesterase [1]
  AC50: > 30 µM

## CC(=O)[C@H]1CC[C@H]2[C@@H]3CCC4=CC(=O)CC[C@]4(C)[C@H]3CC[C@]12C [PROGESTERONE]
Acetylcholinesterase [1]
  AC50: > 30 µM

## CCN(c1cc(-c2ccc(CN3CCOCC3)cc2)cc(C(=O)NCc2c(C)cc(C)[nH]c2=O)c1C)C1CCOCC1 [TAZEMETOSTAT]
Acetylcholinesterase [12]
  AC50: > 30 µM
[15]
  AC50: > 30 µM

## C[N+]1(C)[C@@H]2C[C@@H](OC(=O)C(O)(c3cccs3)c3cccs3)C[C@H]1[C@@H]1O[C@@H]12 [TIOTROPIUM BROMIDE]
[16]
  AC50: 0.0003 µM
[17]
  AC50: 0.0015 µM
